# Earlier results in patent US8362253B2, “Solid forms of N-[2,4-bis(1,1-dimethylethyl)-5-hydroxyphenyl]-1,4-dihydro-4-oxoquinoline-3-carboxamide” (Vertex Pharmaceutical Incorporated, priority 2007, dated 2013).
# Test system: cystic fibrosis transmembrane conductance regulator (CFTR) protein
# Details: cells from patients with CF, CFTR present on the cell surface; background statement
compound,measurement,value
"CC(C)(C)c1cc(C(C)(C)C)c(NC(=O)c2c[nH]c3ccccc3c2=O)cc1O [Compound 1, N-[2,4-bis(1,1-dimethylethyl)-5-hydroxyphenyl]-1,4-dihydro-4-oxoquinoline-3-carboxamide]",Function of defective CFTR channels,restored the function of defective CFTR channels
